Measurements: PubChem BioAssay AID248 (DTP/NCI, 2004)
Where “and” joins values, the source holds several entries; their conditions need not be identical. Equal entries are not always repeated. Inconclusive results and toxic doses are left out. No stated cut-off is given here; in the data, active means T/C of 150% or more; inactive means T/C below 125%. Peptide text beside a SMILES is read from it.

Test system: L1210 leukemia ip in BDF1 mice, survival T/C
Test: NCI In Vivo Anticancer Drug Screen. Data for tumor model L1210 Leukemia (intraperitoneal) in B6D2F1 (BDF1) mice
Conditions: endpoint: mean survival time, higher = longer survival
Summary of the method: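 Transplantable tumor model; survival measured in treated vs vehicle control mice. Value = treated/control.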

[1] = dose: 100.0 mg/kg/injection, schedule: Q04DX003 (ip), vehicle: saline
[2] = dose: 200.0 mg/kg/injection, schedule: Q04DX003 (ip), vehicle: saline
[3] = dose: 400.0 mg/kg/injection, schedule: Q04DX003 (ip), vehicle: saline
[4] = dose: 12.5 mg/kg/injection, schedule: Q01DX009 (ip), vehicle: saline
[5] = dose: 100.0 mg/kg/injection, schedule: Q01DX009 (ip), vehicle: Klucel (hydroxypropylcellulose) (HPC)
[6] = dose: 200.0 mg/kg/injection, schedule: Q01DX009 (ip), vehicle: Klucel (hydroxypropylcellulose) (HPC)
[7] = dose: 400.0 mg/kg/injection, schedule: Q01DX009 (ip), vehicle: Klucel (hydroxypropylcellulose) (HPC)
[8] = dose: 3.13 mg/kg/injection, schedule: Q01DX009 (ip), vehicle: saline
[9] = dose: 6.25 mg/kg/injection, schedule: Q01DX009 (ip), vehicle: saline

Measured: T/C

CSCCC(NC(=O)C(N)C(C)C)C(=O)O (stereo not drawn) (H-Val-Met-OH; configuration not given here)
inactive: [1] 100 % of control | [2] 108 % of control | [3] 103 % of control

CC(=O)SCCC(=O)O
inactive: dose: 8.25 mg/kg/injection, schedule: Q01DX009 (ip), vehicle: saline 94 % of control | [4] 92 % of control | dose: 18.75 mg/kg/injection, schedule: Q01DX009 (ip), vehicle: saline 103 % of control

O=C(Nc1nccs1)c1cccc(F)c1
inactive: [5] 104 % of control | [6] 110 % of control | [7] 112 % of control

Nc1cccc(COc2ccccc2)c1
inactive: [1] 90 % of control | [2] 92 % of control

CN(C)c1ccc(N=O)cc1
inactive: dose: 0.78 mg/kg/injection, schedule: Q04DX002 (ip), vehicle: saline 89 % of control | dose: 1.56 mg/kg/injection, schedule: Q01DX009 (ip), vehicle: saline 93 % of control | dose: 1.56 mg/kg/injection, schedule: Q04DX002 (ip), vehicle: saline 95 % of control | [8] 93 % of control | dose: 3.13 mg/kg/injection, schedule: Q04DX002 (ip), vehicle: saline 95 % of control | [9] 97 % of control | dose: 6.25 mg/kg/injection, schedule: Q04DX002 (ip), vehicle: saline 100 % of control

CCC1/C=C/C=C/CC(C)C(O)C(C)(O)C(=O)C(C)C(O)C(C)C(=O)C(C)C(O)C(C)/C=C/C(=O)OC2C(C)C(CC1)OC1(OC(CC(C)O)C(C)CC1=O)C2C (stereo unspecified) (tested in a mixture with another compound)
inactive: dose: 0.08 mg/kg/injection, schedule: Q01DX009 (ip), vehicle: saline 102 % of control | dose: 0.16 mg/kg/injection, schedule: Q01DX009 (ip), vehicle: saline 103 % of control | dose: 0.16 mg/kg/injection, schedule: Q04DX003 (ip), vehicle: saline 117 % of control | dose: 0.31 mg/kg/injection, schedule: Q01DX009 (ip), vehicle: saline 102 % of control | dose: 0.32 mg/kg/injection, schedule: Q01DX001 (ip), vehicle: saline 118 % of control | dose: 0.32 mg/kg/injection, schedule: Q01DX009 (ip), vehicle: saline 113 % of control | dose: 0.32 mg/kg/injection, schedule: Q04DX003 (ip), vehicle: saline 117 % of control | dose: 0.44 mg/kg/injection, schedule: Q01DX Z (ip), vehicle: other 114 % of control | dose: 0.44 mg/kg/injection, schedule: Q01DX Z (ip), vehicle: saline 100 % of control | dose: 0.47 mg/kg/injection, schedule: Q01DX009 (ip), vehicle: saline with Tween-80 120 % of control | dose: 0.47 mg/kg/injection, schedule: Q01DX009 (ip), vehicle: saline 101 % of control | dose: 0.63 mg/kg/injection, schedule: Q01DX009 (ip), vehicle: saline 104 % of control | dose: 0.66 mg/kg/injection, schedule: Q01DX Z (ip), vehicle: other 122 % of control | dose: 0.66 mg/kg/injection, schedule: Q01DX Z (ip), vehicle: saline 96 % of control | dose: 0.7 mg/kg/injection, schedule: Q01DX009 (ip), vehicle: saline 102 % of control | dose: 0.8 mg/kg/injection, schedule: Q01DX Z (ip), vehicle: methylcellulose (MC) 110 % of control | dose: 1.0 mg/kg/injection, schedule: Q01DX Z (ip), vehicle: saline 109 % of control and 116 % of control | dose: 1.2 mg/kg/injection, schedule: Q01DX Z (ip), vehicle: methylcellulose (MC) 106 % of control | dose: 1.25 mg/kg/injection, schedule: Q01DX009 (ip), vehicle: saline 102 % of control | dose: 1.5 mg/kg/injection, schedule: Q01DX Z (ip), vehicle: other 115 % of control | dose: 1.5 mg/kg/injection, schedule: Q01DX Z (ip), vehicle: saline 102 % of control and 118 % of control | dose: 1.8 mg/kg/injection, schedule: Q01DX Z (ip), vehicle: methylcellulose (MC) 106 % of control | dose: 2.5 mg/kg/injection, schedule: Q01DX009 (ip), vehicle: saline 96 % of control | dose: 2.6 mg/kg/injection, schedule: Q01DX001 (ip), vehicle: saline 112 % of control | dose: 2.7 mg/kg/injection, schedule: Q01DX Z (ip), vehicle: methylcellulose (MC) 107 % of control | dose: 4.0 mg/kg/injection, schedule: Q01DX001 (ip), vehicle: saline 117 % of control | dose: 4.0 mg/kg/injection, schedule: Q01DX Z (ip), vehicle: methylcellulose (MC) 102 % of control | dose: 5.0 mg/kg/injection, schedule: Q01DX009 (ip), vehicle: saline 110 % of control | dose: 6.0 mg/kg/injection, schedule: Q01DX001 (ip), vehicle: saline 123 % of control | dose: 8.0 mg/kg/injection, schedule: Q01DX Z (ip), vehicle: methylcellulose (MC) 92 % of control | dose: 10.0 mg/kg/injection, schedule: Q01DX009 (ip), vehicle: saline 124 % of control

O=c1[nH]c(=S)nc2nc[nH]n12
inactive: [1] 97 % of control | [2] 102 % of control | [3] 105 % of control

CCC1NC(C)(C)CC1=C(C)C (stereo unspecified)
inactive: [8] 101 % of control | [9] 96 % of control | [4] 96 % of control

O=Cc1ccc(N2CCOCC2)cc1
inactive: dose: 50.0 mg/kg/injection, schedule: Q01DX009 (ip), vehicle: Klucel (hydroxypropylcellulose) (HPC) 97 % of control | [5] 97 % of control | [6] 106 % of control | [7] 97 % of control

CCCOC(=O)C(C)(O)C(Cl)c1ccccc1 (stereo unspecified)
inactive: dose: 37.5 mg/kg/injection, schedule: Q01DX009 (ip), vehicle: Klucel (hydroxypropylcellulose) (HPC) 96 % of control | dose: 50.0 mg/kg/injection, schedule: Q01DX001 (ip), vehicle: saline 104 % of control | dose: 58.0 mg/kg/injection, schedule: Q01DX001 (ip), vehicle: saline 108 % of control | dose: 75.0 mg/kg/injection, schedule: Q01DX009 (ip), vehicle: Klucel (hydroxypropylcellulose) (HPC) 100 % of control | dose: 88.0 mg/kg/injection, schedule: Q01DX001 (ip), vehicle: saline 107 % of control | dose: 100.0 mg/kg/injection, schedule: Q01DX001 (ip), vehicle: saline 103 % of control | dose: 100.0 mg/kg/injection, schedule: Q04DX002 (ip), vehicle: saline 109 % of control and 114 % of control | dose: 133.0 mg/kg/injection, schedule: Q01DX001 (ip), vehicle: saline 103 % of control | dose: 150.0 mg/kg/injection, schedule: Q01DX009 (ip), vehicle: Klucel (hydroxypropylcellulose) (HPC) 104 % of control | dose: 200.0 mg/kg/injection, schedule: Q01DX001 (ip), vehicle: saline 106 % of control and 109 % of control | dose: 200.0 mg/kg/injection, schedule: Q04DX002 (ip), vehicle: saline 117 % of control | dose: 300.0 mg/kg/injection, schedule: Q01DX001 (ip), vehicle: saline 98 % of control | dose: 300.0 mg/kg/injection, schedule: Q01DX009 (ip), vehicle: Klucel (hydroxypropylcellulose) (HPC) 104 % of control | dose: 400.0 mg/kg/injection, schedule: Q01DX001 (ip), vehicle: saline 96 % of control | dose: 400.0 mg/kg/injection, schedule: Q04DX002 (ip), vehicle: saline 105 % of control and 118 % of control

C=CCNc1ccnc(SC)n1
inactive: dose: 100.0 mg/kg/injection, schedule: Q01DX001 (ip), vehicle: gum acacia 94 % of control | dose: 200.0 mg/kg/injection, schedule: Q01DX001 (ip), vehicle: gum acacia 103 % of control

O=C(O)/C=C/S(=O)(=O)Cc1ccccc1
inactive: dose: 100.0 mg/kg/injection, schedule: Q04DX003 (ip), vehicle: Klucel (hydroxypropylcellulose) (HPC) 98 % of control | dose: 200.0 mg/kg/injection, schedule: Q04DX003 (ip), vehicle: Klucel (hydroxypropylcellulose) (HPC) 100 % of control

c1ccc(-c2ccc(-c3c(-c4ccccc4)ccc(-c4ccccc4)c3-c3ccccc3)cc2)cc1
inactive: dose: 100.0 mg/kg/injection, schedule: Q01DX001 (ip), vehicle: saline with Tween-80 104 % of control | dose: 200.0 mg/kg/injection, schedule: Q01DX001 (ip), vehicle: saline with Tween-80 104 % of control | dose: 400.0 mg/kg/injection, schedule: Q01DX001 (ip), vehicle: saline with Tween-80 112 % of control
